Test results taken from the supplement of paper PMC8092582.
± gives the standard deviation of the averaged measurements.

Test system: HeLa
Test: cell viability (CellTiter-Glo) relative to median of lowest-dilution wells of all drugs (fraction); higher = more viable cells
Protocol: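 HeLa control and CRISPR DDX11 knockout cells were seeded in 384-well plates and incubated for 72 h with each of 64 […] drugs at six concentrations. Viability was read with CellTiter-Glo and normalised to the median of the lowest (6th) dilution wells of all drugs. Two biological replicates (BR1, BR2) are averaged; the concentration unit is not stated.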

[1] = drug concentration (unit not stated): 0.12, genotype: DDX11 knockout
[2] = drug concentration (unit not stated): 0.12, genotype: control (DDX11 wild type)
[3] = drug concentration (unit not stated): 0.37, genotype: DDX11 knockout
[4] = drug concentration (unit not stated): 0.37, genotype: control (DDX11 wild type)
[5] = drug concentration (unit not stated): 1.11, genotype: DDX11 knockout
[6] = drug concentration (unit not stated): 1.11, genotype: control (DDX11 wild type)
[7] = drug concentration (unit not stated): 3.33, genotype: DDX11 knockout
[8] = drug concentration (unit not stated): 3.33, genotype: control (DDX11 wild type)
[9] = drug concentration (unit not stated): 10, genotype: DDX11 knockout
[10] = drug concentration (unit not stated): 10, genotype: control (DDX11 wild type)
[11] = drug concentration (unit not stated): 0.01, genotype: DDX11 knockout
[12] = drug concentration (unit not stated): 0.01, genotype: control (DDX11 wild type)
[13] = drug concentration (unit not stated): 0.04, genotype: DDX11 knockout
[14] = drug concentration (unit not stated): 0.04, genotype: control (DDX11 wild type)

SMILES | cell viability [1] | cell viability [2] | cell viability [3] | cell viability [4] | cell viability [5] | cell viability [6] | cell viability [7] | cell viability [8] | cell viability [9] | cell viability [10] | cell viability (drug concentration (unit not stated): 30, genotype: DDX11 knockout) | cell viability (drug concentration (unit not stated): 30, genotype: control (DDX11 wild type)) | cell viability [11] | cell viability [12] | cell viability [13] | cell viability [14]
NC(=O)c1ccc(I)c([N+](=O)[O-])c1 [Iniparib (BSI-201)] | 1.01 ± 0.022 | 0.996 ± 0.031 | 1.06 ± 0.0055 | 0.981 ± 0.077 | 1.03 ± 0.045 | 0.951 ± 0.08 | 0.996 ± 0.028 | 0.969 ± 0.12 | 1.02 ± 0.062 | 0.93 ± 0.17 | 0.839 ± 0.094 | 0.92546 ± 0.00092 | – | – | – | –
NC(=O)Nc1cc(-c2cccc(F)c2)sc1C(=O)N[C@H]1CCCNC1 [AZD7762] | 0.992 ± 0.051 | 0.959 ± 0.023 | 0.819 ± 0.055 | 0.896 ± 0.16 | 0.36 ± 0.022 | 0.647 ± 0.3 | 0.142 ± 0.014 | 0.299 ± 0.12 | – | – | – | – | 1.08 ± 0.072 | 1.02 ± 0.025 | 1.011 ± 0.0048 | 1.04 ± 0.043
CO[C@@H](C(=O)N1Cc2[nH]nc(NC(=O)c3ccc(N4CCN(C)CC4)cc3)c2C1)c1ccccc1 | 0.877 ± 0.023 | 0.943 ± 0.18 | 0.906 ± 0.032 | 0.943 ± 0.13 | 0.744 ± 0.091 | 0.771 ± 0.065 | 0.624 ± 0.11 | 0.645 ± 0.046 | 0.466 ± 0.043 | 0.58 ± 0.1 | – | – | – | – | 0.971 ± 0.036 | 0.956 ± 0.032
CC(=O)Nc1cccc(-n2c(=O)n(C3CC3)c(=O)c3c(Nc4ccc(I)cc4F)n(C)c(=O)c(C)c32)c1 [Trametinib] | 0.773 ± 0.058 | 0.914 ± 0.18 | 0.861 ± 0.12 | 0.976 ± 0.28 | 0.736 ± 0.17 | 0.952 ± 0.31 | 0.613 ± 0.23 | 0.968 ± 0.34 | 0.46 ± 0.03 | 0.706 ± 0.17 | – | – | – | – | 0.814 ± 0.081 | 0.908 ± 0.2
Nc1nc(F)nc2c1ncn2[C@@H]1O[C@H](COP(=O)(O)O)[C@@H](O)[C@@H]1O [Fludarabine Phosphate (Fludara)] | 1.03 ± 0.061 | 1.04 ± 0.012 | 1.02 ± 0.12 | 1.0367 ± 0.00023 | 1.08 ± 0.024 | 1.07 ± 0.029 | 1.06 ± 0.046 | 1.15 ± 0.028 | 1.07 ± 0.027 | 1.16 ± 0.12 | – | – | – | – | 1.0709 ± 0.00057 | 1.04 ± 0.014
C[C@@]1(CO)[C@H](O)CC[C@@]2(C)[C@H]1CC[C@H]1C[C@@H]3C[C@@]12CC[C@]3(O)CO [Aphidicolin] | 1.06 ± 0.089 | 1.08 ± 0.11 | 0.91 ± 0.027 | 1.06 ± 0.24 | 0.58 ± 0.046 | 0.79 ± 0.27 | 0.428 ± 0.045 | 0.523 ± 0.16 | 0.182 ± 0.027 | 0.23 ± 0.13 | – | – | – | – | 1.02 ± 0.036 | 1.06 ± 0.031
COc1cc2c(cc1O)CCN[C@]21CS[C@@H]2c3c(OC(C)=O)c(C)c4c(c3[C@H](COC1=O)N1[C@@H]2[C@H]2c3c(cc(C)c(OC)c3O)C[C@@H]([C@@H]1O)N2C)OCO4 [Trabectedin (Yondelis)] | 1 ± 0.034 | 1.02 ± 0.034 | 0.9874 ± 0.0059 | 1.02 ± 0.025 | 0.913 ± 0.14 | 1.034 ± 0.0075 | – | – | – | – | – | – | 1.061 ± 0.0098 | 1.05 ± 0.0085 | 1.01 ± 0.044 | 1 ± 0.031
CCc1cnn2c(NCc3ccc[n+]([O-])c3)cc(N3CCCC[C@H]3CCO)nc12 [Dinaciclib] | 0.182 ± 0.011 | 0.239 ± 0.068 | 0.171 ± 0.019 | 0.264 ± 0.096 | 0.169 ± 0.0065 | 0.254 ± 0.097 | – | – | – | – | – | – | 0.119 ± 0.011 | 0.0976 ± 0.048 | 0.189 ± 0.0066 | 0.232 ± 0.063
O=c1[nH]cc(F)c(=O)[nH]1 [Adrucil (Fluorouracil)] | 1.03 ± 0.046 | 1 ± 0.031 | 1.06 ± 0.046 | 1.03 ± 0.032 | 1.01 ± 0.073 | 1.05 ± 0.23 | 0.928 ± 0.26 | 1.02 ± 0.45 | 0.817 ± 0.14 | 0.945 ± 0.37 | – | – | – | – | 1 ± 0.034 | 0.976 ± 0.016
COc1cc(Nc2ncc3c(n2)-c2ccc(Cl)cc2C(c2c(F)cccc2OC)=NC3)ccc1C(=O)O [Alisertib] | 0.752 ± 0.019 | 0.966 ± 0.34 | 0.7 ± 0.092 | 0.844 ± 0.23 | 0.859 ± 0.029 | 0.919 ± 0.16 | 0.781 ± 0.041 | 0.827 ± 0.12 | – | – | – | – | 1.056 ± 0.0065 | 1.044 ± 0.0066 | 0.996 ± 0.016 | 1.03 ± 0.1
CCS(=O)(=O)Nc1ccc2c(c1)/C(=C(/Nc1ccc(CN3CCCCC3)cc1)c1ccccc1)C(=O)N2 [Hesperadin] | 0.85 ± 0.077 | 0.995 ± 0.26 | 0.79 ± 0.011 | 0.966 ± 0.21 | 0.696 ± 0.026 | 0.838 ± 0.12 | – | – | – | – | – | – | 1.038 ± 0.0037 | 1.02 ± 0.011 | 0.981 ± 0.038 | 0.9913 ± 0.0085
CC1(C)CCC(c2ccc(Cl)cc2)=C(CN2CCN(c3ccc(C(=O)NS(=O)(=O)c4ccc(N[C@H](CCN5CCOCC5)CSc5ccccc5)c(S(=O)(=O)C(F)(F)F)c4)cc3)CC2)C1 [ABT-263 (Navitoclax)] | 1 ± 0.021 | 1.02 ± 0.076 | 1.04 ± 0.014 | 1.022 ± 0.0018 | 0.976 ± 0.043 | 1.0084 ± 0.00083 | 1.02 ± 0.048 | 1.06 ± 0.058 | 0.841 ± 0.14 | 0.894 ± 0.22 | – | – | – | – | 1.04 ± 0.045 | 0.983 ± 0.041
O=C(CCCCCCC(=O)Nc1ccccc1)NO [Vorinostat (SAHA)] | 0.995 ± 0.052 | 0.971 ± 0.031 | 0.771 ± 0.18 | 0.825 ± 0.27 | 0.317 ± 0.41 | 0.44 ± 0.58 | – | – | – | – | – | – | 1.01 ± 0.075 | 1.03 ± 0.026 | 0.974 ± 0.013 | 0.9673 ± 0.0094
